The test system of data set [1] is nitric oxide production in LPS-stimulated RAW 264.7 macrophages. Nature of the data set: Inhibition of NO production in LPS-stimulated RAW 264.7 macrophages (Griess reaction). Type of data set: cell-based, mouse. To be noted: for IC50: Mus musculus, read-out: IC50, inhibition of NO production; for NO production inhibition at 10 μM: test concentration of 10 μM; for NO production inhibition at 10 μM / NO-inhibitory effect: RAW 264.7, LPS; for NO-inhibitory effect: tested at 3 to 30 μM. The procedure: RAW 264.7 macrophages were seeded into 96-well plates at a density of 2.0 × 10^5 cells/well in complete DMEM and allowed to adhere for 2 h at 37 °C under 5% CO2. The cells were pretreated with compounds 1–15 (3–30 μM) for 2 h, followed by stimulation with ultrapure lipopolysaccharide (LPS; 100 ng/mL, from E. coli O111:B4, Sigma-Aldrich) for 24 h. NO production was assessed via the Griess reaction by quantifying nitrite (NO2^−) accumulation in culture supernatants.
Briefly, 50 μL of the cell-free supernatant from each well was mixed with 50 μL of 1% sulfanilamide (dissolved in 5% phosphoric acid; Griess Reagent A, Beyotime Biotechnology, Shanghai, China) and incubated for 5 min at room temperature. Subsequently, 50 μL of 0.1% N-1-naphthylethylenediamine dihydrochloride (Griess Reagent B, Beyotime Biotechnology) was added, followed by 5 min incubation in the dark. The absorbance was measured at 540 nm with a reference wavelength of 630 nm using a Synergy H1 microplate reader (BioTek Instruments, Winooski, VT, USA). Nitrite concentrations were interpolated from a sodium nitrite standard curve (0–100 μM; R^2 > 0.99).
Background: Nitrite, measured by Griess reagent, commonly stands in for NO production.

The test system of data set [2] is iNOS mRNA expression in RAW 264.7 cells. Nature of the data set: LPS-induced iNOS mRNA expression by RT-qPCR. Type of data set: cell-based, mouse. To be noted: RAW 264.7, 0.3–10 μM, LPS 24 h. The method, then: (§1) RAW 264.7 cells (2 × 10^6 cells) were seeded into 30 mm petri dishes. After the cells adhered to the dishes for 2 h, compound 10 at concentrations of 0.3, 1, 3, and 10 μM was added, and the cells were cultured in an incubator at 37 °C for 2 h. Then, 100 ng/mL of LPS was added and the cells were co-cultured for 24 h. The cells were collected into 1.5 mL EP tubes, and total RNA was extracted using an RNA extraction kit. Then, the concentration of the total RNA was determined with a nucleic acid quantifier, and the RNA was reverse transcribed into the corresponding cDNA.
(§2) According to the operation procedures of the rapid reverse transcription kit, 1 μg of total RNA and 1 μL of dNTP Mixture were first added into a PCR tube. Then, RNase-free dH2O was added until the total volume of the solution reached 10 μL. After mixing evenly, the mixture was incubated at 65 °C for 5 min and then immediately placed on ice for ice-bathing. Subsequently, 4 μL of 5 × PrimeScript® Buffer, 0.5 μL of RNase Inhibitor (40 U/μL), 1 μL of PrimeScript® RTase (200 U/μL), and 4.5 μL of RNase Free dH2O were added to make the entire solution system reach 20 μL. […]
(§3) The reaction system mixture was prepared using a real-time quantitative PCR kit. […]
A general note: Quantitative PCR measures a nucleic acid by following its amplification.

Data set [3] has as its system IL-6 expression in RAW 264.7 cells. Description: LPS-induced IL-6 expression by real time PCR. To be noted: RAW 264.7, 0.3–10 μM, LPS 24 h. Type of data set: cell-based, mouse. The method, then: as §1, §2, §3
Data set [4] has as its system ROS production in RAW264.7 cells. Nature of the data set: LPS-induced ROS production (DCFH-DA fluorescent probe). It is filed as cell-based, mouse. To be noted: RAW264.7, LPS 24 h, concentrations that are not cytotoxic (0.3–10 μM). The method, then:
RAW264.7 cells were seeded into black 96-well plates at a density of 5 × 10^4 cells per well and cultured for 2 h until they adhered to the plate. Subsequently, compound 10 at concentrations of 0.3, 1, 3, and 10 μM was added respectively, and the cells were cultured for another 2 h. Then, 100 ng/mL of LPS was added and the cells were co-cultured in an incubator at 37 °C for 24 h. After that, the production of ROS was detected. The cell culture medium in the 96-well plates was removed, and then […] of the fluorescent probe DCFH-DA solution diluted to 10 μM with serum-free DMEM medium was added. The plates were placed in the cell incubator and incubated in the dark for 30 min. Subsequently, the supernatant was removed and the cells were washed three times with phosphate-buffered saline (PBS). Finally, detection was carried out using a microplate reader (BioTek, Winooski, VT, USA) with an excitation wavelength of 488 nm and an emission wavelength of 525 nm.

Data set [5] has as its system TNF-α expression in RAW 264.7 cells. Nature of the data set: LPS-induced TNF-α expression by real time PCR. Type of data set: cell-based, mouse. To be noted: RAW 264.7, 0.3–10 μM, LPS 24 h. The method, then: as §1, §2, §3
In a further data set the target is T1, NF-κB p65 (Mus musculus, UniProt Q04207).
T1 construct: endogenous in cells; host or cells: RAW 264.7 murine macrophages, LPS-stimulated
T1 sequence (Q04207 whole entry): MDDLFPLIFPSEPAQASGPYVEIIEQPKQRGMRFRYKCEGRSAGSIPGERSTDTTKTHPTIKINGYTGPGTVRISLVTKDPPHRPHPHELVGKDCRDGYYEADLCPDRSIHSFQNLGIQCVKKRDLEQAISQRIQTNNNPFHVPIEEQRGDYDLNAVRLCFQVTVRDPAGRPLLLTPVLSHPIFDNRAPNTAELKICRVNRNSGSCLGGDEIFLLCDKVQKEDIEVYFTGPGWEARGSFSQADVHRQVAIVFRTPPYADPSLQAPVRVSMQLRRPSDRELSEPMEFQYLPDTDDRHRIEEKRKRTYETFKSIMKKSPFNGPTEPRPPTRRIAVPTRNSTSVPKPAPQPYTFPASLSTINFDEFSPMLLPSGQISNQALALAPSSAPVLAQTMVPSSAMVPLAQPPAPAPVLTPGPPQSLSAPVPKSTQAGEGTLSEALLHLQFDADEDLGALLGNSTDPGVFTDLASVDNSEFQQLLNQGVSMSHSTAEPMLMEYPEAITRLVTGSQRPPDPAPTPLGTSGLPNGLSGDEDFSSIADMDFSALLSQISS
Nature of the data set: DNA-binding activity of p65 (NF-κB p65 ELISA kit). Type of data set: cell-based. To be noted: 0.3–10 μM, p < 0.01 vs. LPS-only group. The procedure: To investigate the anti-inflammatory mechanism of compound 10, we quantified its inhibitory effect on the DNA-binding activity of p65 using a TransAM® NF-κB p65 ELISA kit (Ruixin Biotechnology, Guangzhou, China).
RAW 264.7 macrophages were seeded into 60 mm diameter culture dishes at a density of 3.0 × 10^6 cells/dish in complete DMEM and allowed to adhere for 2 h at 37 °C under 5% CO2. Cells were pretreated with Compound 10 (0.3–10 μM in DMSO, final solvent concentration < 0.1%) for 2 h, followed by stimulation with ultrapure LPS for an additional 2 h. The supernatant of cell culture medium was collected, and then NF-κB p65 binding activity of NF-κB in extracts was detected with NF-κB p65 kit (RUIXIN, Quanzhou, China).
(ELISA stands for enzyme-linked immunosorbent assay.)

The subject of data set [6] is IL-1β expression in RAW 264.7 cells. Description: LPS-induced IL-1β expression by real time PCR. Type of data set: cell-based, mouse. To be noted: RAW 264.7, 0.3–10 μM, LPS 24 h. The method, then: as §1, §2, §3
The test system of another data set is RAW 264.7 cells. Description: Cytotoxicity, CCK-8 cell viability assay. Type of data set: cell-based, mouse. To be noted: for cytotoxicity (qualitative): tested at 3, 10 and 30 μM. The procedure:
RAW 264.7 cells were seeded into 96-well plates at a density of 1.0 × 10^5 cells/well (100 μL/well) in complete DMEM (high-glucose DMEM supplemented with 10% FBS, 100 U/mL penicillin, and 100 μg/mL streptomycin) and allowed to adhere for 24 h at 37 °C under 5% CO2. Subsequently, serial dilutions of compounds (0.3–30 μM in DMSO, with the final DMSO concentration < 0.1%) were added to respective wells and incubated for 24 h. Cell viability was assessed using the CCK-8 assay (Dojindo Laboratories, Kumamoto, Japan): 10% (v/v) CCK-8 reagent was added to each well, followed by incubation for 30 min at 37 °C. The absorbance was measured at 450 nm with a reference wavelength of 650 nm using a microplate reader (BioTek Instruments, Winooski, VT, USA).

Data set [7] relates to nitric oxide production in LPS-stimulated RAW 264.7 macrophages. Description: Inhibition of NO production in LPS-stimulated RAW 264.7 macrophages (Griess reaction). It is filed as cell-based, mouse. To be noted: re-evaluation within 0.3–10 μM, RAW264.7, LPS.
For data set [8], the system named is NO production in LPS-activated RAW264.7 murine macrophages. Also on record: method as in doi:10.1039/C7RA09859F. To be noted: read-out: IC50, inhibition of NO production; cited from earlier work.
Setting [9] is: RAW264.7, LPS-stimulated RAW 264.7 macrophages, LPS 100 ng/mL, 24 h.

Read-outs that look alike come from different tables or passages of the source.

One may read the IC50 as the concentration at which inhibition is half-maximal.

Regarding `C[C@@H]1CC[C@H]2C(C)(C)[C@H](O)[C@H](O)C[C@]2(C)[C@@]12Cc1c(O)cc3c(c1O2)CN(CCc1ccc(O)cc1)C3=O` [Compound 1, Chartarlactam U], the IC50 in data set [1] (setting [9]) stood at 26.2 µM.
Take `CC1CCC2C(C)(C)C(O)C(O)CC2(C)C12Cc1c(O)cc3c(c1O2)C(=O)NC3=O` (centres unmarked) [Compound 3, Chartarlactam W]: the concentration for half-maximal inhibition (IC50) in data set [1] (setting [9]) worked out at 22.4 µM.
In the case of `CCC(C)C(C(=O)O)N1Cc2c(cc(O)c3c2O[C@]2(C3)[C@H](C)CC[C@H]3C(C)(C)[C@H](O)[C@H](O)C[C@@]32C)C1=O` (some centres unmarked) [Compound 10], in [1] (setting [9]), the IC50 is 12.4 µM. The “NO production inhibition at 10 μM” value in [1] is listed as “potent inhibitory effects”. Also, in [2], the “LPS-induced iNOS mRNA expression” value was “significant suppression”. Moreover, the IL-6 expression result in data set [3] was “dose-dependent attenuation”. Also, the ROS production result in data set [4] is on record as “capable of inhibiting the production of ROS”. The TNF-α expression entry in data set [5] is reported as “dose-dependent attenuation”. For the same compound, at NF-κB p65, the “DNA-binding activity of p65” value is “significant suppression of p65 binding”. For the same compound, the IL-1β expression result in data set [6] is “dose-dependent attenuation”. Moreover, the “cytotoxicity over the tested concentration range” value in the data set on RAW 264.7 cells (up to 30 μM (0.3–30 μM in the abstract, 3 to 30 μM)) is “no detectable cytotoxicity”. The “inhibitory effect on NO production at 0.3 μM” value in [7] is on record as “potent inhibitory effect on NO production”.
Regarding `CC(C)CC(C(=O)O)N1Cc2c(cc(O)c3c2O[C@]2(C3)[C@H](C)CC[C@H]3C(C)(C)[C@H](O)[C@H](O)C[C@@]32C)C1=O` (some centres unmarked) [Compound 11], the IC50 in [1] (setting [9]) stood at 4.4 µM. In addition, in [1], the “NO production inhibition at 10 μM” value is listed as “potent inhibitory effects” and the NO-inhibitory effect entry was “significant NO-inhibitory effects”. For the same compound, in the data set on RAW 264.7 cells, the “cytotoxicity at 30 μM” value is given as “manifested cytotoxicity”.
`CC(C)CC(C(=O)O)N1Cc2c(cc(O)c3c2O[C@]2(C3)[C@H](C)CC[C@H]3C(C)(C)[C@H](O)CC[C@@]32C)C1=O` (some centres unmarked) [Compound 12]: the concentration for half-maximal inhibition (IC50) in data set [1] (RAW264.7, 24 h) amounted to 6.5 µM. Also, in [1], the “NO production inhibition at 10 μM” value was “potent inhibitory effects” and the NO-inhibitory effect result was “significant NO-inhibitory effects”. Besides, the “cytotoxicity at 30 μM” value in the data set on RAW 264.7 cells is reported as “manifested cytotoxicity”.
On to `C[C@@H]1CC[C@H]2C(C)(C)[C@H](O)CC[C@]2(C)[C@@]12Cc1c(O)cc3c(c1O2)CN(C(CCC(=O)O)C(=O)O)C3=O` (some centres unmarked) [Compound 13], for which the IC50 in data set [1] (setting [9]) was determined as 11.1 µM.
Consider `C[C@@H]1CC[C@H]2C(C)(C)[C@H](O)[C@H](O)C[C@]2(C)[C@@]12Cc1c(O)cc3c(c1O2)CNC3=O` [Compound 14], for which the “cytotoxicity (qualitative)” value with RAW 264.7 cells is “low cytotoxicity”.
On the same count and under the same terms, the result for `C[C@@H]1CC[C@H]2C(C)(C)[C@H](O)CC[C@]2(C)[C@@]12Cc1c(O)cc3c(c1O2)CNC3=O` [Compound 15] reads “low cytotoxicity”.
In the case of `COC(=O)CCCN1Cc2c(cc(O)c3c2O[C@]2(C3)[C@H](C)CC[C@H]3C(C)(C)[C@H](O)CC[C@@]32C)C1=O` [stachybonoid F], the IC50 in [8] is 52.5 µM.
`C[C@@H]1CC[C@H]2C(C)(C)[C@H](O)CC[C@]2(C)[C@@]12Cc1c(O)cc3c(c1O2)COC3=O` [stachybotrylactone]: the IC50 in [8] is 17.9 µM.
Take `CC(=O)O[C@@H]1[C@H](O)C[C@@]2(C)[C@@H](CC[C@@H](C)[C@]23Cc2c(O)cc(CO)c(C=O)c2O3)C1(C)C` [stachybotrysin C]: the IC50 in [8] is 27.2 µM.

(Values after paper PMC12113431, “Chartarlactams U-X: Novel Phenylspirodrimanes from a Marine Derived Fungus Stachybotrys sp. SZU-W23 with Anti-Inflammatory Activity Mediated by the NF-κB/ROS Signaling Pathways” (Marine Drugs, 2025).)
